Laboratory results reported in patent US7405228B2, “Antibacterial cyano-(substituted)-methylenepiperidinophenyl oxazolidinones targeting multiple ribonucleoprotein sites” (Wockhardt Limited, priority 2002, dated 2008).

melting point | Structure (SMILES)
172 to 174 °C | N#CC=C1CCN(c2ccc(N3C[C@H](CN=C=O)OC3=O)cc2F)CC1 (stereo in doubt)
80 to 82 °C | N#CC=C1CCN(c2ccc(N3CC(CN=[N+]=[N-])OC3=O)cc2)CC1 (stereo in doubt) [Example 1, (S)-{3-[4-(4-cyanomethylidene-piperidin-1-yl)-phenyl]-2-oxo-oxazolidin-5-ylmethyl}-azide]
186 to 188 °C | N#CC=C1CCN(c2ccc(N3CC(Cn4cc(C#N)nn4)OC3=O)cc2)CC1 (stereo in doubt) [Example 5, (S)-1-{3-[4-(4-cyanomethylidene-piperidin-1-yl)-phenyl]-2-oxo-oxazolidin-5-ylmethyl}-4-cyano-1,2,3-triazole]
112 to 114 °C | N#CC=C1CCN(c2ccc(N3CC(CN=[N+]=[N-])OC3=O)cc2F)CC1 (stereo in doubt) [Example 16, (S)-{3-[4-(4-cyanomethylidene-piperidin-1-yl)-3-fluorophenyl]-2-oxo-oxazolidin-5-ylmethyl}-azide]
145 °C | N#CC=C1CCN(c2ccc(N3C[C@H](CNC(=O)C4COC(=O)N4)OC3=O)cc2F)CC1 (stereo in doubt) [Example 24, (S)-N-{3-[4-(4-cyanomethylidene-piperidin-1-yl)-3-fluorophenyl]-2-oxo-oxazolidin-5-ylmethyl}-2-oxo-oxazolidin-4-yl-carboxamide]
155 °C | N#CC=C1CCN(c2ccc(N3C[C@H](CNC(=O)C4CCCN4)OC3=O)cc2F)CC1 (stereo in doubt) [Example 25, (S)-N-{3-[4-(4-cyanomethylidene-piperidin-1-yl)-3-fluorophenyl]-2-oxo-oxazolidin-5-ylmethyl}-pyrrolidin-2-carboxamide]
164 to 166 °C | CCOC(=O)c1cn(CC2CN(c3ccc(N4CCC(=CC#N)CC4)c(F)c3)C(=O)O2)nn1 (stereo in doubt) [Example 26, (S)-1-{3-[4-(4-cyanomethylidene-piperidin-1-yl)-3-fluorophenyl]-2-oxo-oxazolidin-5-ylmethyl}-4-carboethoxy-1,2,3-triazole]
70 to 72 °C | CCOC(=O)c1cnnn1CC1CN(c2ccc(N3CCC(=CC#N)CC3)c(F)c2)C(=O)O1 (stereo in doubt) [Example 27, (S)-1-{3-[4-(4-cyanomethylidene-piperidin-1-yl)-3-fluorophenyl]-2-oxo-oxazolidin-5-ylmethyl}-5-carboethoxy-1,2,3-triazole]
78 to 80 °C | N#CC=C1CCN(c2ccc(N3CC(Cn4cc(C#N)nn4)OC3=O)cc2F)CC1 (stereo in doubt) [Example 28, (S)-1-{3-[4-(4-cyanomethylidene-piperidin-1-yl)-3-fluorophenyl]-2-oxo-oxazolidin-5-ylmethyl}-4-cyano-1,2,3-triazole]
85 to 86 °C | N#CCC1CCN(c2ccc(N3CC(CN=[N+]=[N-])OC3=O)cc2)CC1 (stereo in doubt) [Example 122, (S)-{3-[4-(4-cyanomethyl-piperidin-1-yl)-phenyl]-2-oxo-oxazolidin-5-ylmethyl}-azide]
198 to 200 °C | CCOC(=O)c1cn(CC2CN(c3ccc(N4CCC(CC#N)CC4)cc3)C(=O)O2)nn1 (stereo in doubt) [Example 123, (S)-1-{3-[4-(4-cyanomethyl-piperidin-1-yl)-phenyl]-2-oxo-oxazolidin-5-ylmethyl}-4-carboethoxy-1,2,3-triazole]
248 to 250 °C | N#CCC1CCN(c2ccc(N3CC(Cn4cc(C(N)=O)nn4)OC3=O)cc2F)CC1 (stereo in doubt) [Example 127, (S)-1-{3-[4-(4-cyanomethyl-piperidin-1-yl)-3-fluorophenyl]-2-oxo-oxazolidin-5-ylmethyl}-4-carboxamido-1,2,3-triazole]
200 to 202 °C | N#CCC1CCN(c2ccc(N3CC(Cn4cc(C#N)nn4)OC3=O)cc2F)CC1 (stereo in doubt) [Example 128, (S)-1-{3-[4-(4-cyanomethyl-piperidin-1-yl)-3-fluorophenyl]-2-oxo-oxazolidin-5-ylmethyl}-4-cyano-1,2,3-triazole]
120 to 122 °C | CS(=O)(=O)OC[C@H]1CN(c2ccc(N3CCC(=CC#N)CC3)cc2)C(=O)O1 [Example 6, (R)-{3-[4-(4-cyanomethylidene-piperidin-1-yl)-phenyl]-2-oxo-oxazolidin-5-ylmethyl}-methanesulphonate]
183 to 184 °C | N#CC=C1CCN(c2ccc(N3C[C@H](CNC=O)OC3=O)cc2F)CC1 [Example 8, (S)-N-{3-[4-(4-cyanomethylidene-piperidin-1-yl)-3-fluorophenyl]-2-oxo-oxazolidin-5-ylmethyl}-formamide]
210 to 212 °C | CC(C)(C)CC(=O)NC[C@H]1CN(c2ccc(N3CCC(=CC#N)CC3)c(F)c2)C(=O)O1 [Example 12, (S)-N-{3-[4-(4-cyanomethylidene-piperidin-1-yl)-3-fluorophenyl]-2-oxo-oxazolidin-5-ylmethyl}-3,3-dimethylbutanamide]

melting point | Structure (SMILES)
68 to 70 °C | N#CC=C1CCN(c2ccc(N3C[C@H](CNC(=O)CO)OC3=O)cc2F)CC1 [Example 13, (S)-N-{3-[4-(4-cyanomethylidene-piperidin-1-yl)-3-fluorophenyl]-2-oxo-oxazolidin-5-ylmethyl}-2-hydroxyacetamide]
91 to 93 °C | CC(C)(C)C(=O)OCC(=O)NC[C@H]1CN(c2ccc(N3CCC(=CC#N)CC3)c(F)c2)C(=O)O1 [Example 14, (S)-N-{3-[4-(4-cyanomethylidene-piperidin-1-yl)-3-fluorophenyl]-2-oxo-oxazolidin-5-ylmethyl}-2-pivolyloxyacetamide]
111 to 113 °C | C=CCN(C#N)C[C@H]1CN(c2ccc(N3CCC(=CC#N)CC3)c(F)c2)C(=O)O1 [Example 22, (S)-{N-{3-[4-(4-cyanomethylidene-piperidin-1-yl)-3-fluorophenyl]-2-oxo-oxazolidin-5-ylmethylamino}N-cyano}-prop-2-ene]
150 to 152 °C | N#CC=C1CCN(c2ccc(N3C[C@H](CNC(=O)CC#N)OC3=O)cc2F)CC1 [Example 23, (S)-N-{3-[4-(4-cyanomethylidene-piperidin-1-yl)-3-fluorophenyl]-2-oxo-oxazolidin-5-ylmethyl}-2-cyanoacetamide]
162 to 164 °C | N#CC=C1CCN(c2ccc(N3C[C@H](CNC(=O)C(F)F)OC3=O)cc2F)CC1 [Example 29, (S)-N-{3-[4-(4-cyanomethylidene-piperidin-1-yl)-3-fluorophenyl]-2-oxo-oxazolidin-5-ylmethyl}-difluoroacetamide]
142 to 144 °C | N#CC=C1CCN(c2ccc(N3C[C@H](CNC(=O)C(Cl)(Cl)Cl)OC3=O)cc2F)CC1 [Example 33, (S)-N-{3-[4-(4-cyanomethylidene-piperidin-1-yl)-3-fluorophenyl]-2-oxo-oxazolidin-5-ylmethyl}-trichloroacetamide]
160 to 162 °C | N#CC=C1CCN(c2ccc(N3C[C@H](CNC(=O)CBr)OC3=O)cc2F)CC1 [Example 34, (S)-N-{3-[4-(4-cyanomethylidene-piperidin-1-yl)-3-fluorophenyl]-2-oxo-oxazolidin-5-ylmethyl}-bromoacetamide]
178 to 180 °C | N#CC=C1CCN(c2ccc(N3C[C@H](CNC(=O)CI)OC3=O)cc2F)CC1 [Example 36, (S)-N-{3-[4-(4-cyanomethylidene-piperidin-1-yl)-3-fluorophenyl]-2-oxo-oxazolidin-5-ylmethyl}-iodoacetamide]
103 to 105 °C | C[C@H](N)C(=O)NC[C@H]1CN(c2ccc(N3CCC(=CC#N)CC3)c(F)c2)C(=O)O1 [Example 41, (2S, 5S)-{N-{3-[4-(4-cyanomethylidene-piperidin-1-yl)-3-fluorophenyl]-2-oxo-oxazolidin-5-ylmethyl}-propionamid-2-yl}-amine]
88 to 90 °C | N#CC=C1CCN(c2ccc(N3C[C@H](CNC(=O)C(N)CO)OC3=O)cc2F)CC1 (stereo partly drawn) [Example 42, (2S, 5S)-{N-{3-[4-(4-cyanomethylidene-piperidin-1-yl)-3-fluorophenyl]-2-oxo-oxazolidin-5-ylmethyl}-3-hydroxypropionamid-2-yl}-amine]
93 to 96 °C | N#CC=C1CCN(c2ccc(N3C[C@H](CNC(=O)[C@@H](N)Cc4c[nH]cn4)OC3=O)cc2F)CC1 [Example 43, (2S, 5S){N-{3-[4-(4-cyanomethylidene-piperidin-1-yl)-3-fluorophenyl]-2-oxo-oxazolidin-5-ylmethyl}-3-(imidazol-4-yl)-propionamid-2-yl}-amine]
183 to 185 °C | N#CC=C1CCN(c2ccc(N3C[C@H](CN4C(=O)c5ccccc5C4=O)OC3=O)cc2F)CC1 [Example 44, (S)-N-{3-[4-(4-cyanomethylidene-piperidin-1-yl)-3-fluorophenyl]-2-oxo-oxazolidin-5-ylmethyl}-1-pthalamide]
168 to 170 °C | N#CC=C1CCN(c2ccc(N3C[C@H](CNC(=S)NCCO)OC3=O)cc2F)CC1 [Example 48, (S)-N-{3-[4-(4-cyanomethylidene-piperidin-1-yl)-3-fluorophenyl]-2-oxo-oxazolidin-5-ylmethyl}-2-hydroxyethylthiocarbamide]
157 to 158 °C | N#CC=C1CCN(c2ccc(N3C[C@H](CNC(=S)CN)OC3=O)cc2F)CC1 [Example 49, (S)-N-{3-[4-(4-cyanomethylidene-piperidin-1-yl)-3-fluorophenyl]-2-oxo-oxazolidin-5-ylmethylamino}-thiocarbonylmethylamine]
191 to 192 °C | CNC(=S)NC[C@H]1CN(c2ccc(N3CCC(=CC#N)CC3)c(F)c2)C(=O)O1 [Example 52, (S)-N-{3-[4-(4-cyanomethylidene-piperidin-1-yl)-3-fluorophenyl]-2-oxo-oxazolidin-5-ylmethyl}-methylthiocarbamide]
126 to 128 °C | CS(=O)(=O)OC[C@H]1CN(c2ccc(N3CCC(=CC#N)CC3)c(F)c2)C(=O)O1 [Example 54, (R)-{3-[4-(4-cyanomethylidene-piperidin-1-yl)-3-fluorophenyl]-2-oxo-oxazolidin-5-ylmethyl}-methanesulphonate]
